The structures appear in SMILES notation. Several values for one entry are separate records, joined by “and”; a condition that tells them apart may be missing. Equal entries are not always repeated. Where two headings read alike, the source gives them in different places.

We go through 1 molecule from publication PMC7156612, “Olinciguat, an Oral sGC Stimulator, Exhibits Diverse Pharmacology Across Preclinical Models of Cardiovascular, Metabolic, Renal, and Inflammatory Disease” (Frontiers in Pharmacology, 2020).

Data set [1] is described as follows: Pharmacokinetics in Sprague-Dawley rats. It is filed as in vivo. Particulars: rat, plasma; for bioavailability / Cmax / Tmax / half-life: po; for bioavailability: 1 mg/kg; for Cmax / Tmax / half-life: p.o. 1 mg/kg. As to the method:
Male (n=12, 2 groups of 6) and female (n=12, 2 groups of 6) Sprague-Dawley rats (275–300 g) with indwelling jugular vein cannulae were fasted overnight prior to dosing. Animals were dosed either intravenously (i.v.) via bolus injection through a percutaneous catheter into a lateral tail vein or orally (p.o.) via gavage. Olinciguat was formulated in 60% polyethylene glycol (PEG) 400/40% water at 0.3 mg/ml (0.3 mg/kg) for i.v. dosing, and at 1 mg/ml (1 mg/kg) in 100% PEG 400 for p.o. dosing. Chow was returned to animals 4 h postdose.
Blood from i.v. and p.o. dosed rats was collected at 16 timepoints (2 groups of rats, 8 timepoints per group) over 24 h. Samples were collected into potassium ethylenediamine tetraacetic acid (K2EDTA) tubes, centrifuged (3,500 rpm for 10 min) to yield plasma. In the pharmacokinetic studies and in all in vivo studies, olinciguat plasma concentrations were determined by LC-MS/MS. Pharmacokinetic (PK) parameters were calculated by noncompartmental analysis using sparse sampling in Phoenix® WinNonLin® v.6.3 (Certara, Princeton, NJ).

The nature of data set [2]: Plasma protein binding (equilibrium dialysis), human. It is filed as in vitro ADME. Conditions: 1 and 10 μM, equilibrium dialysis 18 h, read-out: bound to plasma proteins (converted). How it is done:
Concentrated (10 mM) DMSO stock solutions of olinciguat were diluted to 1 and 10 μM in 2.5 ml of rat (male and female Sprague Dawley) and human plasma. Concentrated [^14C]-labeled olinciguat (1 μl,1 mCi/ml stock concentration) was spiked into each sample and mixed by vortexing. Triplicate 500 μl aliquots of plasma containing [^14C]-labeled olinciguat were transferred to a Rapid Equilibrium Dialysis system and dialyzed (molecular weight cut-off ~8000 Da) against 500 μl of phosphate-buffered saline (PBS) at room temperature for 18 h. Radioactivity of [^14C]-labeled olinciguat in PBS and plasma samples was measured using liquid scintillation counting.

Data set [3] deals with spontaneously hypertensive rats (SHR). The experiment in a line: Arterial hemodynamics by telemetry in spontaneously hypertensive rats. Type of data set: in vivo, rat. As to the method:
The Dataquest A.R.T.™ acquisition and analysis system (Data Sciences International [DSI], St. Paul, MN) was employed to monitor and analyze hemodynamic data from conscious, freely moving rats surgically implanted with a telemetry pressure transmitter (PA-C40). Telemetry transmitter implantation was performed on rats under sterile conditions. Rats were anesthetized with isoflurane and body temperature was maintained with a heating pad during surgery. A laparotomy was performed to expose the abdominal aorta. The catheter tip of the telemetry transmitter was inserted into the abdominal aorta and secured with a 5-0 silk suture (Ethicon, Inc., Somerville, NJ). The abdominal incision was closed with uninterrupted suture (4-0 silk, Ethicon, Inc., Somerville, NJ) and the telemetry transmitter was placed in the abdominal cavity and secured to the abdominal wall. Approximately 100 µl of 0.25% marcaine was applied directly to the closed abdominal wall, and the skin was then closed with suture (4-0 Vicryl® absorbable, Ethicon, Inc., Somerville, NJ). Buprenorphine (0.05 mg/kg/day, subcutaneous [s.c.]) was administered immediately after the surgery for postoperative pain relief. After recovery from anesthesia, rats were returned to their home cages, placed on DSI receivers, and allowed a 5- to 14-day recovery period. Arterial hemodynamics were measured continuously and recorded throughout the study. For acute studies, analysis was based on hourly averages, for chronic studies, analysis was based on daily or weekly averages.
Spontaneously hypertensive rats (SHRs) (n=6, male, 230–250 g, 14 weeks of age) and Wistar rats (n=6, male, 230–250 g, 12 weeks of age) were implanted with telemetry transmitters as described above. Olinciguat was formulated as a suspension in a vehicle containing 0.5% methylcellulose and 0.2% Tween. Rats were p.o. dosed with a dosing volume of 5 ml/kg. […] Using plasma from tail vein, olinciguat plasma concentrations were determined at 1, 6, and 24 h post-dose on day 4 and reported as the mean from Wistar (n=3) and SHR (n=3). Hemodynamics were recorded hourly during a 24-h baseline period and over the first 3 days of dosing.
Maximum change from baseline of mean arterial pressure (MAP) was calculated using the 24-h pre-first dose average subtracted from the lowest MAP value recorded within 2 h following dosing. The 1-h post-dose change from baseline heart rate (HR) was calculated using the 3-h pre-first dose average subtracted from the 1-h post-dose average.
In the hemodynamic study in Wistar and SHR, hourly MAP data were analyzed using a repeated measures two-way ANOVA, with time and treatment group as independent variables. Significance at each timepoint was determined as compared to the vehicle control using a Dunnett's post-hoc test.

For the molecule `NC(=O)[C@](O)(CNc1nc(-c2cc(-c3ccon3)n(Cc3ccccc3F)n2)ncc1F)C(F)(F)F` [olinciguat, (R)-3,3,3-trifluoro-2-(((5-fluoro-2-(1-(2-fluorobenzyl)-5-(isoxazol-3-yl)-1H-pyrazol-3-yl)pyrimidin-4-yl)amino)methyl)-2-hydroxypropanamide], the Vd in data set [1] (both sexes, Sprague-Dawley, intravenous, 0.3 mg/kg, male and female rats, mean, read-out: mean pharmacokinetic volume of distribution) came out at 1 L/kg; in data set [1] (iv, female Sprague Dawley rats, i.v. 0.3 mg/kg, read-out: Vss), 0.9 L/kg; in data set [1] (iv, male Sprague Dawley rats, i.v. 0.3 mg/kg, read-out: Vss), 1.1 L/kg. Further, the bioavailability in data set [1] (both sexes, Sprague-Dawley, rats, sexes not separated (discussion), read-out: oral bioavailability (rats, overall)) is 40%; in data set [1] (female Sprague Dawley rats, read-out: Oral bioavailability), 45%; in data set [1] (male Sprague Dawley rats, read-out: Oral bioavailability), 36%. Besides, the clearance in data set [1] (iv, female Sprague Dawley rats, i.v. 0.3 mg/kg) turned out to be 5.6 mL/min/kg; in data set [1] (iv, male Sprague Dawley rats, i.v. 0.3 mg/kg) it was 11.3 mL/min/kg. Further, the Cmax in data set [1] (female Sprague Dawley rats) is 198 ng/mL; in data set [1] (male Sprague Dawley rats) it was 96.4 ng/mL. The values for the Tmax in data set [1] (female Sprague Dawley rats) and in data set [1] (male Sprague Dawley rats) were 3 h and 1 h, respectively. Further, the half-life in data set [1] (female Sprague Dawley rats) was 3.9 h; in data set [1] (male Sprague Dawley rats), 3.5 h. Further, in data set [2], the fraction unbound at 18 h is 0.0199. Besides, the “MAP vs vehicle-treated rats” value is “only lower than vehicle-treated rats on the third day of dosing” in data set [3] (1 mg/kg p.o. QD); “significantly lower than vehicle-treated rats” in data set [3] (3 mg/kg p.o. QD, 6-h period following dosing on all 3 days); “significantly lower than vehicle-treated rats” in data set [3] (10 mg/kg p.o. QD, 6-h period following dosing on all 3 days). Further, the “maximum absolute change in MAP” value in data set [3] (10 mg/kg p.o. QD, day 3, 10 mg/kg) is −26 ± 2 mmHg and −26^b mmHg.
